Data from US4103011A, “Novel penicillin compounds and process for preparation thereof” (priority 1976, dated 1978).
Values after ≈ are worked out from the molar mass of the structure shown. Where two headings read alike, the source gives them in different places.

Legend:
[1] = system: Corynebacterium pyogenes C-21; experiment: In vitro antibacterial activity (MIC); format: cell-based; conditions: Rhodococcus (subgen. Prescottella) equi, C21; Corynebacterium pyogenes C-21; read-out: minimum inhibitory concentration (MIC)
From the text: (§1) In vitro antibacterial activity against 20 strains of bacteria
(§2) The numerals in the table show minimum inhibitory concentrations (MIC)

[2] = system: Enterobacter cloacae P-2540; experiment: In vitro antibacterial activity (MIC); format: cell-based
From the text: as §1, §2

[3] = system: Escherichia coli NIHJ JC-2; experiment: In vitro antibacterial activity (MIC); format: cell-based
From the text: as §1, §2

Escherichia coli P-140a = experiment: In vitro antibacterial activity (MIC); format: cell-based
From the text: as §1, §2

Escherichia coli P-5101 [4] = experiment: In vitro antibacterial activity (MIC); format: cell-based
From the text: as §1, §2

[5] = system: Klebsiella pneumoniae No. 13; experiment: In vitro antibacterial activity (MIC); format: cell-based; conditions: Klebsiella pneumoniae No. 13; read-out: minimum inhibitory concentration (MIC)
From the text: as §1, §2

Proteus mirabilis P-2381 = experiment: In vitro antibacterial activity (MIC); format: cell-based
From the text: as §1, §2

Proteus morganii Kono = experiment: In vitro antibacterial activity (MIC); format: cell-based; conditions: Morganella morganii, read-out: minimum inhibitory concentration (MIC)
From the text: as §1, §2

Proteus rettgeri P-2503 = experiment: In vitro antibacterial activity (MIC); format: cell-based; conditions: Providencia rettgeri, P2503; Proteus rettgeri P-2503; read-out: minimum inhibitory concentration (MIC)
From the text: as §1, §2

[6] = system: Pseudomonas aeruginosa No.12; experiment: In vitro antibacterial activity (MIC); format: cell-based; conditions: Pseudomonas aeruginosa No.12; read-out: minimum inhibitory concentration (MIC)
From the text: as §1, §2

[7] = system: Pseudomonas aeruginosa Tsuchijima; experiment: In vitro antibacterial activity (MIC); format: cell-based; conditions: read-out: minimum inhibitory concentration (MIC)
From the text: as §1, §2

[8] = system: Salmonella enteritidis No. 1891; experiment: In vitro antibacterial activity (MIC); format: cell-based; conditions: Salmonella enterica, read-out: minimum inhibitory concentration (MIC)
From the text: as §1, §2

[9] = system: Salmonella typhimurium S-9; experiment: In vitro antibacterial activity (MIC); format: cell-based; conditions: Salmonella enterica, read-out: minimum inhibitory concentration (MIC)
From the text: as §1, §2

[10] = system: Serratia mercescens IFO 3736; experiment: In vitro antibacterial activity (MIC); format: cell-based
From the text: as §1, §2

Shigella flexneri 2a = experiment: In vitro antibacterial activity (MIC); format: cell-based; conditions: read-out: minimum inhibitory concentration (MIC)
From the text: as §1, §2

[11] = system: Shigella flexneri 4a P-330; experiment: In vitro antibacterial activity (MIC); format: cell-based; conditions: 4AP330, read-out: minimum inhibitory concentration (MIC)
From the text: as §1, §2

[12] = system: Staphylococcus aureus 209P JC-1; experiment: In vitro antibacterial activity (MIC); format: cell-based; conditions: Staphylococcus aureus 209P JC-1; read-out: minimum inhibitory concentration (MIC)
From the text: as §1, §2

[13] = system: Staphylococcus aureus No. 50774; experiment: In vitro antibacterial activity (MIC); format: cell-based
From the text: as §1, §2

[14] = system: Streptococcus faecalis P-2473; experiment: In vitro antibacterial activity (MIC); format: cell-based; conditions: Enterococcus faecalis
From the text: as §1, §2

[15] = system: Streptococcus pyogenes 65A; experiment: In vitro antibacterial activity (MIC); format: cell-based; conditions: Streptococcus pyogenes 65A; read-out: minimum inhibitory concentration (MIC)
From the text: as §1, §2

20 strains of bacteria = experiment: In vitro antibacterial activity, overall conclusions; format: cell-based
From the text: as §1

[16] = system: Staphylococcus aureus No. 50774; experiment: In vivo efficacy against systemic infection; parameters: species or system male mice (ddY); conditions: NO.50774, in Mus musculus, 336 h, sc, twice, about 5 minutes and 6 hours after infection, read-out: ED50 (median effective dose)
Description: (§3) The contents in the vials (No. A and No. C) prepared in Example 17 were each dissolved in deionized water, and injections having various concentrations were prepared.
Compounds A, B, F, G, H and M were dissolved in deionized water. Compounds C, D, E and J were dissolved in an aqueous solution of sodium carbonate (pH 8-9) to prepare injections of various concentrations.
Each of the injections was administered to mice under the conditions described below, and the median effective doses (ED50) obtained are shown in Table II.
(§4) Mice: male mice (ddY) weighting about 20g
Staphylococcus aureus No. 50774;
Intravenous infection with 50 to 100
LD50 (about 5 × 10^8cells/mouse) of a
bacterial suspension in saline.
(§5) twice, about 5 minutes and 6 hours after
Staphylococcus aureus No. 50774 14 days
The numerals in the table show ED50 (mg/kg). ED50 values were
(§6) calculated in accordance with the Behrens-Kaerber method [Arch. Exp. Path

Escherichia coli P-5101 [17] = experiment: In vivo efficacy against systemic infection; parameters: species or system male mice (ddY); conditions: P5101, in Mus musculus, 168 h, twice, about 5 minutes and 6 hours after infection, read-out: ED50 (median effective dose)
Description: as §3
(§7) Compounds A, B, F, G, H and M were dissolved in deionized water.
as §4
(§8) Intraperitoneal infection with 50 to
(§9) of a bacterial suspension in tryptosoy
as §5, §6

[18] = system: Pseudomonas aeruginosa No. 12; experiment: In vivo efficacy against systemic infection; parameters: species or system male mice (ddY); conditions: NO.12, in Mus musculus, twice, about 5 minutes and 6 hours after infection, read-out: ED50 (median effective dose)
Description: as §3, §7, §4
Pseudomonas aeruginosa No. 12;
as §8, §9, §5
Pseudomonas aeruginosa No. 12
as §6

[19] = Pseudomonas aeruginosa Tsuchijima
[20] = Staphylococcus aureus, NO.50774, read-out: minimum inhibitory concentration (MIC)
[21] = P2540, Enterobacter cloacae P-2540, read-out: minimum inhibitory concentration (MIC)
[22] = NIHJJC2, Escherichia coli NIHJ JC-2, read-out: minimum inhibitory concentration (MIC)
[23] = P5101, Escherichia coli P-5101, read-out: minimum inhibitory concentration (MIC)
[24] = P2381, Proteus mirabilis P-2381, read-out: minimum inhibitory concentration (MIC)
[25] = Salmonella enteritidis No. 1891
[26] = IFO3736, Serratia mercescens IFO 3736, read-out: minimum inhibitory concentration (MIC)
[27] = P2473, Streptococcus faecalis P-2473, read-out: minimum inhibitory concentration (MIC)

SMILES | MIC [1] | MIC [5] | MIC (Proteus rettgeri P-2503) | MIC [6] | MIC [7, 19] | MIC (Shigella flexneri 2a) | MIC [11] | MIC [12] | MIC [13, 20] | MIC [15] | MIC [2, 21] | MIC [3, 22] | minimum inhibitory concentration (MIC) (Escherichia coli P-140a) | MIC (Escherichia coli P-5101 [4]; [23]) | MIC (Proteus mirabilis P-2381; [24]) | MIC (Proteus morganii Kono; Proteus morganii Kono) | MIC [8, 25] | MIC ([9]; Salmonella typhimurium S-9) | MIC [10, 26] | MIC [14, 27] | other results
CCn1cc(C(=O)O)c(=O)c2cnc(N3CCNCC3)nc21 [Compound J, 5,8-Dihydro-8-ethyl-2-(1-piperazinyl)-5-oxopyrido[2,3-d]pyrimidine-6-carboxylic acid] | 25 µg/mL (≈ 82.4 µM) | 6.25 µg/mL (≈ 20.6 µM) | 6.25 µg/mL (≈ 20.6 µM) | 25 µg/mL (≈ 82.4 µM) | 12.5 µg/mL (≈ 41.2 µM) | 3.13 µg/mL (≈ 10.3 µM) | 1.56 µg/mL (≈ 5.14 µM) | 12.5 µg/mL (≈ 41.2 µM) | 25 µg/mL (≈ 82.4 µM) | > 100 µg/mL | – | – | – | – | – | – | – | – | – | – | MIC ([2]; Enterobacter cloacae, P2540, read-out: minimum inhibitory concentration (MIC)): 1.56 µg/mL (≈ 5.14 µM); MIC ([3]; Escherichia coli, NIHJJC2, read-out: minimum inhibitory concentration (MIC)): 1.56 µg/mL (≈ 5.14 µM); MIC (Escherichia coli P-140a; Escherichia coli, read-out: minimum inhibitory concentration (MIC)): 3.13 µg/mL (≈ 10.3 µM); MIC (Escherichia coli P-5101 [4]; Escherichia coli, P5101, read-out: minimum inhibitory concentration (MIC)): 3.13 µg/mL (≈ 10.3 µM); MIC (Proteus mirabilis P-2381; Proteus mirabilis, P2381, read-out: minimum inhibitory concentration (MIC)): 3.13 µg/mL (≈ 10.3 µM); MIC (Proteus morganii Kono): 3.13 µg/mL (≈ 10.3 µM); MIC ([8]; ENTERITIDIS): 1.56 µg/mL (≈ 5.14 µM); MIC ([9]; TYPHIMURIUM): 3.13 µg/mL (≈ 10.3 µM); MIC ([10]; Serratia, IFO3736, read-out: minimum inhibitory concentration (MIC)): 6.25 µg/mL (≈ 20.6 µM); MIC ([14]; P2473, read-out: minimum inhibitory concentration (MIC)): > 200 µg/mL; antibacterial activity (in words) (20 strains of bacteria; against Gram-positive bacteria): inferior antibacterial activity against Gram-positive bacteria; antibacterial activity (in words) (20 strains of bacteria; against Gram-positive bacteria, listed as Pipemidic acid): does not show any marked antibacterial activity against Gram-positive bacteria; ED50 [16]: > 50 mg/kg; ED50 (Escherichia coli P-5101 [17]; iv): 4.6 mg/kg; ED50 (Escherichia coli P-5101 [17]; sc): 6.3 mg/kg; ED50 ([18]; iv): 42.7 mg/kg; ED50 ([18]; sc): 37.7 mg/kg
O=CN1CCN(c2ncc3c(=O)c(C(=O)O)c[nH]c3n2)CC1 [Compound K, 5,8-Dihydro-2-(4-formyl-1-piperazinyl)-5-oxopyrido[2,3-d]pyrimidine-6-carboxylic acid] | > 50 µg/mL | > 200 µg/mL | > 100 µg/mL | > 200 µg/mL | – | > 100 µg/mL | > 100 µg/mL | > 50 µg/mL | > 50 µg/mL | > 100 µg/mL | > 200 µg/mL | > 100 µg/mL | > 200 µg/mL | > 100 µg/mL | > 50 µg/mL | > 200 µg/mL | > 50 µg/mL | > 50 µg/mL | > 100 µg/mL | > 50 µg/mL | MIC ([7]; Pseudomonas aeruginosa): > 200 µg/mL; antibacterial activity (in words) (20 strains of bacteria; in vitro, Table I): do not substantially show antibacterial activity
CC(=O)N1CCN(c2ncc3c(=O)c(C(=O)O)c[nH]c3n2)CC1 [Compound L, 5,8-Dihydro-2-(4-acetyl-1-piperazinyl)-5-oxopyrido[2,3-d]pyrimidine-6-carboxylic acid] | > 50 µg/mL | > 200 µg/mL | > 100 µg/mL | > 200 µg/mL | > 200 µg/mL | > 100 µg/mL | > 100 µg/mL | > 50 µg/mL | – | > 100 µg/mL | > 200 µg/mL | > 100 µg/mL | > 200 µg/mL | > 100 µg/mL | > 50 µg/mL | > 200 µg/mL | > 50 µg/mL | > 50 µg/mL | > 100 µg/mL | > 50 µg/mL | MIC ([13]; Staphylococcus aureus No. 50774, read-out: minimum inhibitory concentration (MIC)): > 50 µg/mL; antibacterial activity (in words) (20 strains of bacteria; in vitro, Table I): do not substantially show antibacterial activity
